In paper PMC6539809, “Development of Oxygen-Bridged Pyrazole-Based Structures as Cannabinoid Receptor 1 Ligands” (Molecules, 2019):

Assays:
obese mice = system: obese mice; set-up: method as in PMID 23756200; conditions: chronic treatment of obese mice; cited from earlier work
C57Bl6/J mice = test: Acute food intake in fasted mice; type: in vivo, mouse; conditions: for Food intake effect over time: 10 mg/kg i.p., at 2 h and 3 h; for Activity on food intake compared to rimonabant: dose of 10 mg/kg i.p.
Method: To further evaluate the potential application of these CB1 antagonists in the control of food intake and in obesity treatment, compound 1b was preliminarily tested in comparison with SR141716A in an acute in vivo assay using C57Bl6/J mice. The evaluation was carried out according to the animal model previously reported by Di Marzo [19].
It is well known that CB1Rs mediate the hyperphagic effect of cannabinoids. […] To test the potential anti-obesity effect of the new CB1 antagonist 1b we performed food intake experiments according to the acute animal model described by Di Marzo [19]. For a comparison we also reported the results concerning the assumed lead compound of this new series, derivative 1a.
A widely described method was used for the screening of the new CB1 antagonists in the food intake animal model. C57Bl6/J mice weighing 20–25 g were housed individually on a reverse light-dark cycle in a room with temperature and humidity control. The mice were fasted for 18 h before testing. Vehicle or CB1 antagonists were administered by an intraperitoneal injection and 15 min later a known amount of food was presented. Food pellets were weighed after each hour for three hours. Rimonabant was used as internal positive control in order to evaluate the efficacy of each compound. All animal experiments were performed according to the UE (CEE N° 86/609) guidelines for the care and use of experimental animals.
Two-way ANOVA with Bonferroni post-testing was performed using GraphPad Prism version 5.00 for Windows (GraphPad Software, San Diego CA, USA).

[1] = set-up: method as in PMID 23756200; conditions: cited from earlier work
[2] = molecular target: T1, CB1Rs of mouse vas deferens (Mus musculus, UniProt P47746); test: Isolated organ assay: electrically evoked contractions of mouse vas deferens; conditions: for Kb: read-out: Antagonist potency pA2 (converted)
T1 construct: naturally expressed prejunctional neuronal CB1Rs; from tissue; host or cells: isolated vas deferens of male albino CD1 mice
T1 sequence (P47746 whole entry): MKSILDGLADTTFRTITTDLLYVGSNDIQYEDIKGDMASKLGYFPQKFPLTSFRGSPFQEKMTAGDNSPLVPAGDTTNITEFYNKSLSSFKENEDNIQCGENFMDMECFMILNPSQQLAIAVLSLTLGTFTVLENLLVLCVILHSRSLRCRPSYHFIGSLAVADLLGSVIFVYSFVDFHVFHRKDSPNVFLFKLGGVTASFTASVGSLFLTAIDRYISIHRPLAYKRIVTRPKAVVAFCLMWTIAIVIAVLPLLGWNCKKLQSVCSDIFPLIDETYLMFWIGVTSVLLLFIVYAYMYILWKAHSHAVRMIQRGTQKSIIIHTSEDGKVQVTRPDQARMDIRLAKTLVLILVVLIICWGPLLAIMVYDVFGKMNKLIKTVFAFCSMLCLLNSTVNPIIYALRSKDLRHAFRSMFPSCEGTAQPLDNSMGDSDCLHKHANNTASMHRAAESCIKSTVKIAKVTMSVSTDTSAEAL
Method: Vas deferens was obtained from male albino CD1 mice weighing 30 to 40 g. Tissue was mounted in a 10 mL organ bath at an initial tension of 0.5 g using a previously described method [16]. The bath contained Krebs-Henseleit solution (118.2 mM NaCl, 4.75 mM KCl, 1.19 mM KH2PO4, 25.0 mM NaHCO3, 11.0 mM glucose, and 2.54 mM CaCl2), which was kept at 37 °C and bubbled with 95% O2 and 5% CO2. Isometric contractions were evoked by stimulation with 0.5 sec trains of three pulses of 110% maximal voltage (train frequency, 0.1 Hz; pulse duration, 0.5 msec) through platinum electrodes attached to the upper end of each bath and a stainless-steel electrode attached to the lower end. Stimuli were generated using a Grass S88K stimulator and then amplified (multiplexing pulse booster 316S; Ugo Basile, Comerio, Italy) and divided to yield separate outputs to four organ baths. Contractions were monitored using a computer equipped with a data recording and analysis system (PowerLab 400) linked via preamplifiers (QuadBridge) to an F10 transducer (Biological Instruments, Besozzo, Italy). Each tissue was subject to several periods of stimulation. […] The stimulator was then switched off for 15 min, after which the tissues were subjected to further periods of stimulation each lasting 5 min and separated by a stimulation-free period. The compounds to be assayed were added once the contractile responses to electrical stimulation were reproducible. Preparations were exposed to cumulative increasing concentrations of the compounds to obtain concentration-response curves in the case of CB1 agonist (and partial agonist) compounds. […] Inhibition of the electrically evoked twitch response was expressed in percentage terms and was calculated by comparing the amplitude of the twitch response after each addition of the agonist compound (alone or in the presence of a potential CB1 antagonist) with the amplitude detected in absence of the compounds to be assayed (basal value). The pA2 values for competitive antagonism were calculated by Schild regression analysis [37]. Data were plotted as log antagonist concentration versus log [(antagonist concentration/agonist concentration)-1].

CB1 receptor = molecular target: T2, CB1 receptor (Mus musculus, UniProt P47746); conditions: [3H]-CP 55,940, mouse brain (minus cerebellum) homogenate; lead compound; read-out: KiCB1; cited from earlier work
T2 construct: from tissue; host or cells: mouse (CD1) brain minus cerebellum, membrane homogenate
T2 sequence (P47746 whole entry): as above

CB2 receptor = molecular target: T3, CB2 receptor (Mus musculus, UniProt P47936); conditions: [3H]-CP-55,940, mouse spleen homogenate; lead compound; read-out: KiCB2; cited from earlier work
T3 construct: from tissue; host or cells: mouse (CD1) spleen, membrane homogenate
T3 sequence (P47936 whole entry): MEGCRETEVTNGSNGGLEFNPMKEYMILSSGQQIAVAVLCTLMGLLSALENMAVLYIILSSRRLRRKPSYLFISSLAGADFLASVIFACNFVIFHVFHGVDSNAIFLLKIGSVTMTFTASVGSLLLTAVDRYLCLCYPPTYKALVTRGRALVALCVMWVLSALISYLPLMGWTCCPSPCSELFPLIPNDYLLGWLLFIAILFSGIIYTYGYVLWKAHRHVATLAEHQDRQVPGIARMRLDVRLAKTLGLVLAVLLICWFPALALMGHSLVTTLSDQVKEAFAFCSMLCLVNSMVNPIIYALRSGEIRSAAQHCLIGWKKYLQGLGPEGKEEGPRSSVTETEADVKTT

[3] = system: ventral tegmental area (VTA) dopamine neurons projecting to the NAc shell; set-up: method as in PMID 27521837; conditions: i.v. administration of high doses; cited from earlier work
CD1 mice = test: Gastrointestinal transit (GIT), carmine marker; type: in vivo, mouse
Source text: The mouse isolated vas deferens is a nerve-smooth muscle preparation that serves as a highly sensitive and quantitative functional in vitro bioassay for cannabinoid CB1R agonists. The effect of CB1 agonists is related to the action on naturally expressed prejunctional neuronal CB1Rs to inhibit release of the contractile neurotransmitters, noradrenaline and ATP, which is provoked by electrical stimulation. It has been shown that CB1 antagonist derivatives are able to block or reduce the inhibition of the electrically evoked contraction amplitude of the vas deferens induced by CB1 agonists, with parallel dextral shifts in CB1R agonist log concentration-response curves in electrically stimulated tissues. According to previous studies concerning cannabinoid agents, a gastrointestinal transit test was adopted to confirm CB1 antagonism. […] Moreover, the capability of CB1 antagonist compounds both to block the constipation effect induced by cannabinoid agonists and to themselves increase themselves gastrointestinal motility has been reported.
The same procedure previously reported by Murineddu et al. was adopted to evaluate the effect of the compounds on GIT. CD1 mice weighing 30–35 g were used. Carmine (Sigma Chemical Co, St. Louis, MO, USA) was suspended (6% wt/v) in distilled water containing 0.5% methylcellulose and administered by gavage at the dose of 0.3 mL/mouse. Briefly, after 20 min from carmine administration, mice were sacrificed by cervical dislocation and the stomach and small intestine were removed and the omentum was separated, avoiding stretching. The length of the intestine was measured starting from the pyloric sphincter to the ileocecal junction. The distance travelled by the head of the marker was measured and expressed as a percent of the total length of the small intestine. Using this procedure, the marker was consistently found at approximately 50% of the small intestine, 20 min after its administration to naive mice.
20 min later, mice were killed by dislocation cervical and intestines were removed. […] The length of the intestine from the pyloric sphincter to the ileocecal junction and the distance travelled by the carmine front were both measured and recorded. Groups of n = 10 mice were used in each experiment.
Statistical analyses were performed by one-way ANOVA followed by Newman-Keuls post-hoc comparison.

[4] = system: P-ERK 1/2 expression in mouse neuroblastoma N1E-115 cells (CB1Rs); test: P-ERK 1/2 expression in N1E-115 cells (Western blot); type: cell-based; conditions: 5 min pre-treatment with compound (150–200 nM; 1b 200 nM), then WIN 55,212-2 25 nM for 10 min
Method: Agonist or antagonist activity of the new derivatives towards CB1Rs were assayed through in vitro testing based on the determination of phosphorylated ERK 1/2 (P-ERK 1/2) expression in a mouse neuroblastoma N1E-115 cell line. As previously reported, this cell line expresses CB1Rs but not CB2Rs; moreover, it has been shown that the exposure of N1E-115 cells to the cannabinoid agonists arachidonyl-2-chloroethylamide (ACEA) and WIN 55-212,2 induces a rapid phosphorylation and activation of the ERK 1/2. The addition of CB1 antagonists as SR141716A abolishes the response induced by the cannabinoid agonists.
N1E-115 cells were grown at 37 °C in humidified 5% CO2 in Dulbecco’s Modified Eagle’s Medium (high glucose supplemented with 10% fetal bovine serum (FBS), 1 μg/mL penicillin-streptomycin, 2 mM L-glutamine, 2.5 μg/mL amphotericin B and 50 μg/mL gentamicin). […] Tested and reference compounds were dissolved in Dulbecco’s phosphate buffered saline (D-PBS) with 1% DMSO and treatments were performed in a volume of 10 μL/mL of cell suspension.
P-ERK 1/2 expression was determined through Western blot analysis according to the previously reported procedure. One-way ANOVA was performed as a statistical analysis using the Graph Pad Prism program (San Diego, CA, USA).
The same procedure was adopted to determine CB1 specific antagonism for compounds which had no effect on P-ERK 1/2 expression themselves. In these last cases, WIN55,212-2 at 25 nM as a reference cannabinoid agonist agent and the new CB1 antagonists at 150–200 nM were employed.

rats = system: rats; set-up: method as in PMID 27521837; conditions: i.p. dose of 0.125 mg/kg; cited from earlier work

| Compound | Food intake and body weight on chronic treatment (obese mice) | Food intake effect over time (C57Bl6/J mice) | Activity on food intake compared to rimonabant (C57Bl6/J mice) | Blood-brain barrier (BBB) permeability [1] | Kb [2] [nM] | Ki (CB1 receptor) [nM] | Ki (CB2 receptor) [nM] | Effect on the WIN-55,212-2 action on VTA dopamine neuron activity [3] | Observable side effects / behavioural effects (C57Bl6/J mice; 20 mg/kg (highest assayed dosage)) | Food intake compared to vehicle (C57Bl6/J mice; starting from a dose of 3 mg/kg i.p., fasted mice) | Increase in gastrointestinal transit in comparison to vehicle-treated mice (CD1 mice; 0.5–1.0 mg/kg i.p.) | Effect on GIT in combination with WIN 55,212-2 (CD1 mice; WIN 55,212-2 0.5 mg/kg i.p.) | Counteraction of the WIN 55,212-2-induced increase of P-ERK 1/2 expression [4] | Change of electrically-evoked contractions versus basal response, compound alone ([2]; up to a concentration of 10^−6 M, 30 min incubation) | Food intake and body weight (rats) |
| --- | --- | --- | --- | --- | --- | --- | --- | --- | --- | --- | --- | --- | --- | --- | --- |
| O=C(NN1CCCCC1)c1nn(-c2ccc(Cl)cc2Cl)c2c1CCOc1cc(Cl)ccc1-2 [Compound 1a, 8-chloro-1-(2,4-dichlorophenyl)-N-piperidin-1-yl-4,5-dihydrobenzo-1H-6-oxa-cyclohepta[1,2-c]pyrazole-3-carboxamide] | reduction of food intake and body weight | still markedly decreased food intake | Significant increments of the activity | poor | 7.94 | 10.3 ± 0.41 | > 5000 | – | – | – | – | – | – | – | – |
| O=C(NC1CCCCC1)c1nn(-c2ccc(Cl)cc2Cl)c2c1CCOc1cc(Cl)ccc1-2 [Compound 1b] | – | still markedly decreased food intake | Significant increments of the activity | – | 0.794 | 40 ± 7 | 3725 ± 25 | reverted the effect of the agonist WIN-55,212-2 | absence of observable side effects | significantly reduced food intake | 65–70% | significantly blocked | CB1 antagonist activity | No agonist activity | reduced both food intake and body weight |
